This note sets out measurements from patent US8324225B2, “Pyrrolopyrimidine compounds and their uses” (Novartis AG, priority 2006, dated 2012).

Holding throughout (assay type): biochemical
One test has as its target hCDK1/B (Homo sapiens, UniProt P06493). Kind of test: hCDK1/B. As to conditions: Table E; read-out: hCDK1/B/IC50 [umol l − 1].
For the next test, the target named is CDK4 (Homo sapiens, UniProt P11802). As to the kind of experiment: CDK4 HTRF. The conditions noted are these: Table E; read-out: CDK4 HTRF/IC50 [umol l − 1].
Test [1] addresses CDK2/Cyclin-A kinase complex (Homo sapiens, UniProt P24941). Kind of test: CDK2 IMAP fluorescence polarization assay. The conditions noted are these: Table E; read-out: CDK2cyA IMAP/IC50 [umol l − 1]. The source says: In order to test the CDK2 activity of the compounds of the invention, the CDK2 assay is a fluorescence polarization assay, where the enzyme is a purified active CDK2/Cyclin-A kinase complex and the substrate is a synthesized peptide derived from Histone H1. This assay utilizes the IMAP technology from Molecular Devices. The active CDK2/Cyclin-A complex phosphorylates the peptide substrate, which is conjugated with the TAMRA tag. The phosphorylated site is then recognized by a metal containing molecule that interacts with the TAMRA tag to induce a high fluorescence polarization. The compounds that inhibit the CDK2 kinase activity would inhibit the fluorescence output of the assay.

Sequence of CDK4 (P11802 whole entry): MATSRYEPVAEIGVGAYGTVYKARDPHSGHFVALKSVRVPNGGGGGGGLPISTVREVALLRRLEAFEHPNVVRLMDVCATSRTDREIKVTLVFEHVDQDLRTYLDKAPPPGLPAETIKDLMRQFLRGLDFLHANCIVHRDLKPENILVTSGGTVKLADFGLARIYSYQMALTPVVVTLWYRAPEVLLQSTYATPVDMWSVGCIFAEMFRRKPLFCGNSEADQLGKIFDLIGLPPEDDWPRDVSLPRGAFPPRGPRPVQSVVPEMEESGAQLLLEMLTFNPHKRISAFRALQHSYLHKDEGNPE
Sequence of CDK4 (P24385 whole entry partner): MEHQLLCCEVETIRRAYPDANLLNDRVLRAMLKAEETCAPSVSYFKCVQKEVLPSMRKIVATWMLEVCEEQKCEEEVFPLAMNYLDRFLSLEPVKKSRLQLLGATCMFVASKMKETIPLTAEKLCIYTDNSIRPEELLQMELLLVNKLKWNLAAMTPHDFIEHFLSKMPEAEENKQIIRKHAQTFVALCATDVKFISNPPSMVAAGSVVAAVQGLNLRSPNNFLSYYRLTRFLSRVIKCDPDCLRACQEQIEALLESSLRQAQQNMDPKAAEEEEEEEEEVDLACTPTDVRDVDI
Sequence of hCDK1/B (P06493 whole entry): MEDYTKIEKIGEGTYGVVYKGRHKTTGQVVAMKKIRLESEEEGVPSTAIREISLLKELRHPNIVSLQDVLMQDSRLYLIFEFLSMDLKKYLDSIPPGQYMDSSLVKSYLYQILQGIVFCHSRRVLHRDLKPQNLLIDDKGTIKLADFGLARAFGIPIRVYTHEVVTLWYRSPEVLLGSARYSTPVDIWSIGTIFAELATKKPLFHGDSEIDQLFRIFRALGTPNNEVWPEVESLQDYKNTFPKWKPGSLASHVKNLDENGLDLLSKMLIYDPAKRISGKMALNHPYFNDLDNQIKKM
Sequence of hCDK1/B (P14635 whole entry partner): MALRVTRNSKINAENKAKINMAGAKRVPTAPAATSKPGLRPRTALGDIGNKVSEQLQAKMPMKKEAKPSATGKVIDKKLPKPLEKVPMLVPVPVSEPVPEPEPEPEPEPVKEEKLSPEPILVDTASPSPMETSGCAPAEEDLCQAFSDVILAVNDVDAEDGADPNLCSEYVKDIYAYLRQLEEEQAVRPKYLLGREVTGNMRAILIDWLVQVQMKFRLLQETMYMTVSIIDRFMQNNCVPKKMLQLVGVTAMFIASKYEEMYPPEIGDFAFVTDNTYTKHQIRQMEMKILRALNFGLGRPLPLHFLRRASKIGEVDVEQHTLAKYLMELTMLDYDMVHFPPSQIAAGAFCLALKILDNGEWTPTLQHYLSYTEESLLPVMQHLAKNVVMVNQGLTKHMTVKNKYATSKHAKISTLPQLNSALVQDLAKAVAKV

In the case of `Cc1cn(C2CCCC2)c2nc(Nc3ccc4[nH]ccc4c3)ncc12` [Example 282], the figures for the IC50 (at hCDK1/B; at CDK4; in test [1]) were > 15 µM, > 10 µM and > 15 µM, respectively.
